# Measurements taken from patent publication US7947686B2, “Substituted pyrazolo[4,3-c]pyridine derivatives active as kinase inhibitors” (Nerviano Medical Sciences S.r.l., priority 2005, dated 2011).
# Key:
# [1] = system: IGF1-induced S6 phosphorylation; assay: Growth factor induced S6 ribosomal protein phosphorylation in primary human fibroblasts; assay type: cell-based; details: normal human dermal fibroblasts (NHDF), 10 nM IGF-1; read-out: Inhibition of IGF1-induced S6 phosphorylation IC50
# Method: Growth Factor Induced […] Ribosomal Protein Phosphorylation in Primary Human Fibroblasts.
# Phosphorylation of S6 ribosomal protein in response to growth factor stimulation of normal human dermal fibroblasts (NHDF) was used to assess compound potency in inhibiting IGF-1 induced signal transduction in cells, and selectivity towards EGF and PDGF stimulus. NHDF cells obtained from PromoCell (Heidelberg, Germany), were maintained at 37° C. in a humidified atmosphere with 5% CO2 in complete Fibroblast Growth Medium (PromoCell). For assay, NHDF were seeded in 384-well tissue culture plates (clear- and flat-bottomed black plates; Matrix Technologies Inc., Hudson, N.H., USA) at a density of 5000 cells/well in serum-free medium containing 0.1% bovine serum albumin (BSA) and incubated for 5 days. Starved cells were treated for 1 hour with desired doses of compounds and then stimulated for a further 2 hours with either 10 nM IGF-1 (Invitrogen Corp., CA, USA), 10 nM EGF (Gibco BRL, USA) or 1 nM PDGF-B/B (Roche Diagnostics GmbH, Germany). Cells were then fixed in PBS/3.7% paraformaldehyde for 20 minutes at room temperature, washed ×2 with PBS, and permeabilized with PBS/0.3% Triton X-100 for 15 minutes. Wells were then saturated with PBS/1% non-fat dry milk (Bio-Rad Laboratories, Hercules, Calif., USA) for 1 hour, and then probed for 1 hour at 37° C. with anti-phospho-S6 (Ser 235/236) antibody (Cell Signaling Technology, Beverly, Mass., USA, cat. #2211) at 1/200 dilution in PBS/1% milk/0.3% Tween 20. […] Fluorescence images in the DAPI and Cy5™ channels were automatically acquired, stored and analysed using a Cellomics ArrayScan™ IV instrument (Cellomics, Pittsburgh, USA); the Cellomics Cytotoxicity Algorithm was used to quantify cytoplasmic fluorescence associated with phospho-S6 (Cy5™ signal parameter: “Mean Lyso Mass-pH”) for each cell in 10 fields/well, and eventually expressed as a mean population value. […]
# IGF1R [2] = target: T1, IGF1R (Homo sapiens, UniProt P08069); assay: Biochemical assay for inhibitors of IGF-1R kinase activity (trans-phosphorylation, 33P-ATP, Dowex); set-up: amino acid residues 960-1367 of precursor protein; made in house; host or cells: H5 insect cells (baculovirus; virus produced in Sf21 cells); details: read-out: IGF1R IC50 (μM) Biochemical assay
# Method: Human cDNA was used as template for amplification by polymerase chain reaction (PCR) of the predicted cytoplasmic portion of IGF-1R (amino acid residues 960-1367 of precursor protein; see NCBI Entrez Protein Accession #P08069) which includes the entire kinase domain. PCR was conducted using the forward primer sequence 5′-[…]-3′ (SEQ ID NO:1) and the reverse primer sequence 5′-[…]-3′ (SEQ ID NO:2). In order to facilitate subsequent cloning steps, both primers comprise a BamHI restriction endonuclease site sequence. This PCR product was cloned in frame using BamHI sticky ends into a transfer vector for the baculovirus expression system, pVL1392 (Pharmingen), previously modified by insertion into the pVL1392 multiple cloning site of sequences encoding Glutathione S-transferase (GST) fusion protein, PreScission protease cleavage site and partial MCS cassette derived from the pGex-6P plasmid (Amersham BioSciences). Insertion of the IGF-1R PCR product described above into the pGex-6P derived BamHI site of the modified pVL1392 vector results in an open reading frame corresponding to the pGEX-6P GST protein and PreScission peptide fused with the human IGF-1R cytoplasmic domain. In order to obtain fusion protein, Sf21 insect cells (Invitrogen) are cotransfected with 2 microg of purified plasmid and 1 microg of virus DNA (BaculoGold™ Transfection Kit, Pharmingen), as described in the Baculovirus Instruction manual (Pharmingen). A first amplification of the virus is performed using 600 microL of cotransfected virus on 6×10^6 Sf21 in a monolayer culture, in 12 mL of medium (TNM-FH Grace's medium—Pharmingen). After 3 days the medium is collected, centrifuged and transferred to a sterile tube. A second amplification is prepared with the same method using 2 mL on 3×10^7 cells, diluted in 40 mL of medium. For the third amplification of virus, 1 mL of supernatant from the second round are used per 3×10^7 cells diluted in 40 mL of medium. […]
# The inhibitory activity of putative kinase inhibitors and the potency of selected compounds were determined using a trans-phosphorylation assay. […]
# Target sequence in this assay (P08069 960-1367): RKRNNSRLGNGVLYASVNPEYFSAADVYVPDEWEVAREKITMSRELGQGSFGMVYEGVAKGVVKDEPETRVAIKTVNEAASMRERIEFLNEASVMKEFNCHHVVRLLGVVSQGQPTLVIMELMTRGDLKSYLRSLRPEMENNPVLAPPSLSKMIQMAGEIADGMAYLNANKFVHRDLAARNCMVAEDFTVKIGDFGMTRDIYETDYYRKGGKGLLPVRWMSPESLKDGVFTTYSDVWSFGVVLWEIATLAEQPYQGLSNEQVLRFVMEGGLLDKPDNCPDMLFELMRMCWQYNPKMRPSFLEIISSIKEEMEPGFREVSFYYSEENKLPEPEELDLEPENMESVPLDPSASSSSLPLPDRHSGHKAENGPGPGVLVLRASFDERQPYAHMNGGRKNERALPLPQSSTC
# IGF1R [3] = target: T1, IGF1R; assay: Western blot analysis of receptor phosphorylation following stimulation with IGF-1 in MCF-7 human breast cancer cells; assay type: cell-based; set-up: endogenous in cells; host or cells: MCF-7 (ATCC#HTB-22); details: starved MCF-7 cells, increasing concentrations of compound, then 10 nM IGF1; pIGF1R band, FIG. 1
# Method: [formula] where νb is the baseline velocity, ν is the observed reaction velocity, ν0 is the velocity in the absence of inhibitors, and [I] is the inhibitor concentration. Cell-Based Assays for Inhibitors of IGF-1R Kinase Activity Western Blot Analysis of Receptor Phosphorylation Following Stimulation with IGF-1 in MCF-7 Human Breast Cancer Cells
# MCF-7 cells (ATCC#HTB-22) were seeded in 12-well tissue culture plates at 2×10^5 cells/well in E-MEM medium (MEM+Earle's BSS+2 mM glutamine+0.1 mM non-essential amino acids)+10% FCS, and incubated overnight at 37° C., 5% CO2, 100% relative humidity. Cells were then starved by replacing E-MEM+10% FCS with E-MEM+0.1% BSA, and incubating overnight. After this incubation, wells were treated with desired concentrations of compound for 1 hour at 37° C., and were then stimulated with 10 nM recombinant human IGF-1 (Invitrogen, Carlsbad, Calif., USA) for 10 minutes at 37° C. Cells were then washed with PBS and lysed in 100 microL/well cell lysis buffer (M-PER Mammalian Protein Extraction Reagent [Product #78501, Pierce, Rockford, Ill., USA]+10 mM EDTA+Protease inhibitor cocktail [Sigma-Aldrich product #P8340]+phosphatase inhibitor cocktail [Sigma-Aldrich products #P2850+#P5726]). Cell lysates were cleared by centrifugation at 10,000×g for 5 minutes, and 10 microg/lane of cleared lysate protein were run on NuPAGE gels (NuPAGE 4-12% 10-lane Bis-Tris gels, Invitrogen) with MOPS running buffer, then transferred onto Hybond-ECL nitrocellulose filters (Amersham Biosciences, Little Chalfont, Buckinghamshire, UK) using Mini PROTEAN II chambers (Bio-Rad Laboratories, Hercules, Calif., USA). […]
# Target sequence in this assay (P08069 31-1367): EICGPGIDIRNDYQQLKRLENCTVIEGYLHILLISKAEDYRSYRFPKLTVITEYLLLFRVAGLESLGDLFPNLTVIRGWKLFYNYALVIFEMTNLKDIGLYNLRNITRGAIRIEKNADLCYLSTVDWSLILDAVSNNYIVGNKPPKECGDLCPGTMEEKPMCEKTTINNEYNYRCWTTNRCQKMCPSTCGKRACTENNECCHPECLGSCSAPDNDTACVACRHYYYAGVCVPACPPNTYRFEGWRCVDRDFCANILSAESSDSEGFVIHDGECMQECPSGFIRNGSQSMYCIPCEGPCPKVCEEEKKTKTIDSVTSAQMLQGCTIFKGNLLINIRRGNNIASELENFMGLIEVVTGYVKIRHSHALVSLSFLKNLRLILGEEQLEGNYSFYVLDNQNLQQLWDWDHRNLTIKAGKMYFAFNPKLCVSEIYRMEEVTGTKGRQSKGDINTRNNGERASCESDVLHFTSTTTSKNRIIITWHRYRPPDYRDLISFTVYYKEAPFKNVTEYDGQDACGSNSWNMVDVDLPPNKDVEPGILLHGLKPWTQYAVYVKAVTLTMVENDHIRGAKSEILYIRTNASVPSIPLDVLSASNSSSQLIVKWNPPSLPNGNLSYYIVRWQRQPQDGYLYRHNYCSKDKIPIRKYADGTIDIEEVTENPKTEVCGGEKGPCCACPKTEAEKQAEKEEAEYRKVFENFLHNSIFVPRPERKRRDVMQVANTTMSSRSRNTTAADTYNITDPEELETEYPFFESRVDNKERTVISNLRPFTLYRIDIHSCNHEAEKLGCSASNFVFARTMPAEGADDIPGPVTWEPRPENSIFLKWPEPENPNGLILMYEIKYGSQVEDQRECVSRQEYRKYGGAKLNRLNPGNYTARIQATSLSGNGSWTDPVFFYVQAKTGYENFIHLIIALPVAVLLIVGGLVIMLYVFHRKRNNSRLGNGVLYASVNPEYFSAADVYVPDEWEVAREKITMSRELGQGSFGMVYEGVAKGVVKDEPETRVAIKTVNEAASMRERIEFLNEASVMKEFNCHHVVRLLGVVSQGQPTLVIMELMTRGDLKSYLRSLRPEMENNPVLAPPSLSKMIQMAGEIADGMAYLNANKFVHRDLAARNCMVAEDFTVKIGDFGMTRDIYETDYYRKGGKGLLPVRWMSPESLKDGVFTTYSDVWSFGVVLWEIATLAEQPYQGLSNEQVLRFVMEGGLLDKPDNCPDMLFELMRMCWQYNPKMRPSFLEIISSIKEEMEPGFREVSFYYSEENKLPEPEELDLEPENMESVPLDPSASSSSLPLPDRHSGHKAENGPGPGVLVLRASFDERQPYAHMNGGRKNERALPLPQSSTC
SMILES,IC50 [1] [nM],IC50 (IGF1R [2]) [µM],inhibition of IGF1R auto-phosphorylation (IGF1R [3])
"CN1CCN(c2ccc(C(=O)Nc3n[nH]c4c3CN(S(=O)(=O)c3cc(F)cc(F)c3)CC4)c(NC(=O)c3ccc[nH]3)c2)CC1 [Compound 28, 1H-Pyrrole-2-carboxylic acid [2-[5-(3,5-difluoro-benzenesulfonyl)-4,5,6,7-tetrahydro-1H-pyrazolo[4,3-c]pyridin-3-ylcarbamoyl]-5-(4-methyl-piperazin-1-yl)-phenyl]-amide]",80,0.049,inhibition of IGF1-induced IGF1R auto-phosphorylation
"CN1CCN(c2ccc(C(=O)Nc3n[nH]c4c3CN(S(=O)(=O)c3cc(F)cc(F)c3)CC4)c(NCc3ccco3)c2)CC1 [Compound 52, N-[5-(3,5-Difluoro-benzenesulfonyl)-4,5,6,7-tetrahydro-1H-pyrazolo[4,3-c]pyridin-3-yl]-2-[(furan-2-ylmethyl)-amino]-4-(4-methyl-piperazin-1-yl)-benzamide]",640,0.055,inhibition of IGF1-induced IGF1R auto-phosphorylation
"CN1CCN(c2ccc(C(=O)Nc3n[nH]c4c3CN(S(=O)(=O)c3cc(F)cc(F)c3)CC4(C)C)c(NC(=O)C3CCOCC3)c2)CC1 [Compound 293, Tetrahydro-pyran-4-carboxylic acid [2-[5-(3,5-difluoro-benzenesulfonyl)-7,7-dimethyl-4,5,6,7-tetrahydro-1H-pyrazolo[4,3-c]pyridin-3-ylcarbamoyl]-5-(4-methyl-piperazin-1-yl)-phenyl]-amide]",280,0.14,inhibition of IGF1-induced IGF1R auto-phosphorylation
